Common to all, as to assay type: in vivo
The test system of one series is rat. The series can be described thus: Acute toxicity, rat. As to the method:
(§1) The tested substance(B-220), was administered daily with 6 mg/animal, a dose that can be increased since the margin to toxic effects is wide and most likely further reduce the symptoms. It is to be noted that the acute toxicity of the tested substance used according to the present invention is low, which is exemplified with the following: […]

For the next series, the system named is rabbit. Description: Acute toxicity, cutaneous, rabbit. As to the method: as §1
For another series, the system named is mice. The series can be described thus: Chronic toxicity on mice. Particulars: tested up to 270 days.
The next series concerns Lewis rats. Description: EAE (experimental autoimmune encephalomyelitis) rat model for MS, clinical score. The note with it: for delay of onset / recovery starts earlier: FIG. 2, versus control.

Consider `Cc1cc2nc3c4ccccc4n(CCN(C)C)c3nc2cc1C` [B-220], for which the LD50 in the series on rat (intravenous) is above 100 mg/kg bw; in the series on rat (oral) it was above 800 mg/kg bw. For the same compound, the “NOEL (No Observable Effect Level)” value is reported as 12.5 mg/kg bw in the series on rat (intravenous) and 200 mg/kg bw in the series on rabbit. Also, the chronic toxicity result in the series on mice is “has not induced toxicity”. Besides, the “reduction of the CNS symptoms (clinical score)” value in the series on Lewis rats (FIG. 1, B-220 daily 6 mg/animal, Interferon-beta daily 3×10^5 U/animal, versus negative control) is recorded as 2/3. Besides, the delay of onset is listed as around 2 days in the series on Lewis rats (6 mg/animal) and around 4 days with Lewis rats (12 mg/animal). The recovery starts earlier with Lewis rats (6 mg/animal) was around 2 days; in the series with Lewis rats (12 mg/animal), around 3 days.

For the origin of these results see US20010046996A1, “Use of a compound for preparing a drug” (priority 2000, published 2001).
